Assay results: ChEMBL document CHEMBL5137128, “Daphnoretin Arrests the Cell Cycle and Induces Apoptosis in Human Breast Cancer Cells” (J Nat Prod, 2022)
Activity calls are given as the source filed them. No cut-off for these calls is given here.

What was measured:
[1] = test system: MCF7; assay: Induction of cell cycle arrest in human MCF7 cells assessed as G2/M phase cells at 1 uM incubated for 24 hrs by propidium iodide staining based flow cytometry analysis (reference value: 0.86 %); type: functional
[2] = test system: MCF7; assay: Induction of cell cycle arrest in human MCF7 cells assessed as accumulation of S phase cells at 1 uM incubated for 24 hrs by propidium iodide staining based flow cytometry analysis (reference value: 27.84 %); type: functional
[3] = test system: MCF7; assay: Induction of cell cycle arrest in human MCF7 cells assessed as G0-G1 phase cells at 1 uM incubated for 24 hrs by propidium iodide staining based flow cytometry analysis (reference value: 71.30 %); type: functional
[4] = test system: MCF7; assay: Antiproliferative activity human MCF7 cells assessed as inhibition of cell proliferation incubated for 24 hrs by MTT assay; type: functional, cell-based; conditions: MCF7, 24 h
[5] = test system: MDA-MB-231; assay: Antiproliferative activity human MDA-MB-231 cells assessed as inhibition of cell proliferation incubated for 24 hrs by MTT assay; type: functional, cell-based; conditions: MDA-MB-231, 24 h
[6] = test system: MCF7; assay: Antiproliferative activity human MCF7 cells assessed as inhibition of cell proliferation at 0.1 to 8 uM incubated for 48 hrs by MTT assay; type: functional, cell-based; conditions: dose 0.1-8 µM
[7] = test system: MDA-MB-231; assay: Antiproliferative activity human MDA-MB-231 cells assessed as inhibition of cell proliferation at 0.1 to 8 uM incubated for 48 hrs by MTT assay; type: functional, cell-based; conditions: dose 0.1-8 µM
[8] = test system: MCF7; assay: Induction of morphological changes in human MCF7 cells assessed as decrease in cell numbers at 1 to 4 uM by electron microscopic analysis; type: functional, cell-based; conditions: dose 1-4 µM
[9] = test system: MDA-MB-231; assay: Induction of morphological changes in human MDA-MB-231 cells assessed as decrease in cell numbers at 0.5 to 2 uM by electron microscopic analysis; type: functional, cell-based; conditions: dose 0.5-2 µM
[10] = test system: MCF7; assay: Induction of morphological changes in human MCF7 cells assessed as deformed cells at 1 to 4 uM by electron microscopic analysis; type: functional, cell-based; conditions: dose 1-4 µM
[11] = test system: MDA-MB-231; assay: Induction of morphological changes in human MDA-MB-231 cells assessed as deformed cells at 0.5 to 2 uM by electron microscopic analysis; type: functional, cell-based; conditions: dose 0.5-2 µM
[12] = test system: MCF7; assay: Induction of morphological changes in human MCF7 cells assessed as cell shrinkage at 1 to 4 uM by electron microscopic analysis; type: functional, cell-based; conditions: dose 1-4 µM
[13] = test system: MDA-MB-231; assay: Induction of morphological changes in human MDA-MB-231 cells assessed as cell shrinkage at 0.5 to 2 uM by electron microscopic analysis; type: functional, cell-based; conditions: dose 0.5-2 µM
[14] = test system: MCF7; assay: Induction of cell cycle arrest in human MCF7 cells assessed as G0-G1 phase cells at 2 uM incubated for 24 hrs by propidium iodide staining based flow cytometry analysis (reference value: 71.30 %); type: functional
[15] = test system: MCF7; assay: Induction of cell cycle arrest in human MCF7 cells assessed as accumulation of S phase cells at 2 uM incubated for 24 hrs by propidium iodide staining based flow cytometry analysis (reference value: 27.84 %); type: functional
[16] = test system: MCF7; assay: Induction of cell cycle arrest in human MCF7 cells assessed as G2/M phase cells at 2 uM incubated for 24 hrs by propidium iodide staining based flow cytometry analysis (reference value: 0.86 %); type: functional
[17] = test system: MCF7; assay: Induction of cell cycle arrest in human MCF7 cells assessed as G0-G1 phase cells at 4 uM incubated for 24 hrs by propidium iodide staining based flow cytometry analysis (reference value: 71.30 %); type: functional
[18] = test system: MCF7; assay: Induction of cell cycle arrest in human MCF7 cells assessed as accumulation of S phase cells at 4 uM incubated for 24 hrs by propidium iodide staining based flow cytometry analysis (reference value: 27.84 %); type: functional
[19] = test system: MCF7; assay: Induction of cell cycle arrest in human MCF7 cells assessed as G2/M phase cells at 4 uM incubated for 24 hrs by propidium iodide staining based flow cytometry analysis (reference value: 0.86 %); type: functional
[20] = test system: MCF7; assay: Induction of cell cycle arrest in human MCF7 cells assessed as downregulation of CDK2 expression at 1 to 4 uM measured upto 24 hrs by Western blot analysis relative to control; type: functional, cell-based; conditions: dose 1-4 µM
[21] = test system: MCF7; assay: Induction of cell cycle arrest in human MCF7 cells assessed as downregulation of cyclin E expression at 1 to 4 uM measured upto 24 hrs by Western blot analysis relative to control; type: functional, cell-based; conditions: dose 1-4 µM
[22] = test system: MDA-MB-231; assay: Induction of cell cycle arrest in human MDA-MB-231 cells assessed as G0-G1 phase cells at 0.5 uM incubated for 24 hrs by propidium iodide staining based flow cytometry analysis (reference value: 66.84 %); type: functional
[23] = test system: MDA-MB-231; assay: Induction of cell cycle arrest in human MDA-MB-231 cells assessed as accumulation of S phase cells at 0.5 uM incubated for 24 hrs by propidium iodide staining based flow cytometry analysis (reference value: 28.71 %); type: functional
[24] = test system: MDA-MB-231; assay: Induction of cell cycle arrest in human MDA-MB-231 cells assessed as G2/M phase cells at 0.5 uM incubated for 24 hrs by propidium iodide staining based flow cytometry analysis (reference value: 4.44 %); type: functional
[25] = test system: MDA-MB-231; assay: Induction of cell cycle arrest in human MDA-MB-231 cells assessed as G0-G1 phase cells at 1 uM incubated for 24 hrs by propidium iodide staining based flow cytometry analysis (reference value: 66.84 %); type: functional
[26] = test system: MDA-MB-231; assay: Induction of cell cycle arrest in human MDA-MB-231 cells assessed as accumulation of S phase cells at 1 uM incubated for 24 hrs by propidium iodide staining based flow cytometry analysis (reference value: 28.71 %); type: functional
[27] = test system: MDA-MB-231; assay: Induction of cell cycle arrest in human MDA-MB-231 cells assessed as G2/M phase cells at 1 uM incubated for 24 hrs by propidium iodide staining based flow cytometry analysis (reference value: 4.44 %); type: functional
[28] = test system: MDA-MB-231; assay: Induction of cell cycle arrest in human MDA-MB-231 cells assessed as G0-G1 phase cells at 2 uM incubated for 24 hrs by propidium iodide staining based flow cytometry analysis (reference value: 66.84 %); type: functional
[29] = test system: MDA-MB-231; assay: Induction of cell cycle arrest in human MDA-MB-231 cells assessed as accumulation of S phase cells at 2 uM incubated for 24 hrs by propidium iodide staining based flow cytometry analysis (reference value: 28.71 %); type: functional
[30] = test system: MDA-MB-231; assay: Induction of cell cycle arrest in human MDA-MB-231 cells assessed as G2/M phase cells at 2 uM incubated for 24 hrs by propidium iodide staining based flow cytometry analysis (reference value: 4.44 %); type: functional
[31] = test system: MDA-MB-231; assay: Induction of cell cycle arrest in human MDA-MB-231 cells assessed as downregulation of CDK2 expression at 0.5 to 2 uM measured upto 24 hrs by Western blot analysis relative to control; type: functional, cell-based; conditions: dose 0.5-2 µM
[32] = test system: MDA-MB-231; assay: Induction of cell cycle arrest in human MDA-MB-231 cells assessed as downregulation of cyclin E expression at 0.5 to 2 uM measured upto 24 hrs by Western blot analysis relative to control; type: functional, cell-based; conditions: dose 0.5-2 µM
[33] = test system: MCF7; assay: Induction of apoptosis in human MCF7 cells assessed as chromatin condensation at 1 to 4 uM incubated for 24 hrs by Hoechst 33258 staining based light microscopic analysis; type: functional, cell-based; conditions: dose 1-4 µM
[34] = test system: MCF7; assay: Induction of apoptosis in human MCF7 cells assessed as nuclear condensation at 1 to 4 uM incubated for 24 hrs by Hoechst 33258 staining based light microscopic analysis; type: functional, cell-based; conditions: dose 1-4 µM
[35] = test system: MCF7; assay: Induction of apoptosis in human MCF7 cells assessed as apoptotic bodies at 1 to 4 uM incubated for 24 hrs by Hoechst 33258 staining based light microscopic analysis; type: functional, cell-based; conditions: dose 1-4 µM
[36] = test system: MCF7; assay: Induction of apoptosis in human MCF7 cells assessed as increase in total apoptotic rate at 1 to 4 uM incubated for 24 hrs by propidium iodide staining based flow cytometric analysis; type: functional, cell-based; conditions: dose 1-4 µM
[37] = test system: MDA-MB-231; assay: Induction of apoptosis in human MDA-MB-231 cells assessed as chromatin condensation at 0.5 to 2 uM incubated for 24 hrs by Hoechst 33258 staining based light microscopic analysis; type: functional, cell-based; conditions: dose 0.5-2 µM
[38] = test system: MDA-MB-231; assay: Induction of apoptosis in human MDA-MB-231 cells assessed as nuclear condensation at 0.5 to 2 uM incubated for 24 hrs by Hoechst 33258 staining based light microscopic analysis; type: functional, cell-based; conditions: dose 0.5-2 µM
[39] = test system: MDA-MB-231; assay: Induction of apoptosis in human MDA-MB-231 cells assessed as apoptotic bodies at 0.5 to 2 uM incubated for 24 hrs by Hoechst 33258 staining based light microscopic analysis; type: functional, cell-based; conditions: dose 0.5-2 µM
[40] = test system: MDA-MB-231; assay: Induction of apoptosis in human MDA-MB-231 cells assessed as increase in total apoptotic rate at 0.5 to 2 uM incubated for 24 hrs by propidium iodide staining based flow cytometry analysis relative to control; type: functional, cell-based; conditions: dose 0.5-2 µM
[41] = test system: MCF7; assay: Induction of apoptosis in human MCF7 cells assessed as decrease in Bcl-2 level at 1 to 4 uM measured upto 24 hrs by Western blot analysis; type: functional, cell-based; conditions: dose 1-4 µM
[42] = test system: MCF7; assay: Induction of apoptosis in human MCF7 cells assessed as increase in cleaved caspase-9 level at 1 to 4 uM measured upto 24 hrs by Western blot analysis; type: functional, cell-based; conditions: dose 1-4 µM
[43] = test system: MCF7; assay: Induction of apoptosis in human MCF7 cells assessed as increase in cleaved caspase-3 level at 1 to 4 uM measured upto 24 hrs by Western blot analysis; type: functional, cell-based; conditions: dose 1-4 µM
[44] = test system: MCF7; assay: Induction of apoptosis in human MCF7 cells assessed as increase in Bax level at 1 to 4 uM measured upto 24 hrs by Western blot analysis; type: functional, cell-based; conditions: dose 1-4 µM
[45] = test system: MDA-MB-231; assay: Induction of apoptosis in human MDA-MB-231 cells assessed as decrease in Bcl-2 level at 0.5 to 2 uM measured upto 24 hrs by Western blot analysis; type: functional, cell-based; conditions: dose 0.5-2 µM
[46] = test system: MDA-MB-231; assay: Induction of apoptosis in human MDA-MB-231 cells assessed as increase in cleaved caspase-9 level at 0.5 to 2 uM measured upto 24 hrs by Western blot analysis; type: functional, cell-based; conditions: dose 0.5-2 µM
[47] = test system: MDA-MB-231; assay: Induction of apoptosis in human MDA-MB-231 cells assessed as increase in cleaved caspase-3 level at 0.5 to 2 uM measured upto 24 hrs by Western blot analysis; type: functional, cell-based; conditions: dose 0.5-2 µM
[48] = test system: MDA-MB-231; assay: Induction of apoptosis in human MDA-MB-231 cells assessed as increase in Bax level at 0.5 to 2 uM measured upto 24 hrs by Western blot analysis; type: functional, cell-based; conditions: dose 0.5-2 µM
[49] = test system: MCF7; assay: Inhibition of PI3K phosphorylation in human MCF7 cells at 1 to 4 uM by Western blot analysis; type: cell-based; conditions: dose 1-4 µM
[50] = test system: MCF7; assay: Inhibition of AKT phosphorylation in human MCF7 cells at 1 to 4 uM by Western blot analysis; type: cell-based; conditions: dose 1-4 µM
[51] = test system: MDA-MB-231; assay: Inhibition of PI3K phosphorylation in human MDA-MB-231 cells at 0.5 to 2 uM by Western blot analysis; type: cell-based; conditions: dose 0.5-2 µM
[52] = test system: MDA-MB-231; assay: Inhibition of AKT phosphorylation in human MDA-MB-231 cells at 0.5 to 2 uM by Western blot analysis; type: cell-based; conditions: dose 0.5-2 µM

COc1cc2cc(Oc3ccc4ccc(=O)oc4c3)c(=O)oc2cc1O [DAPHNORETIN]
Activity [1]: 1.92%
Activity [2]: 38.59%
Activity [3]: 59.49%
IC50 [4]: 2000 nM
IC50 [5]: 1000 nM
Activity [6]: Active
Activity [7]: Active
Activity [8]: Active
Activity [9]: Active
Activity [10]: Active
Activity [11]: Active
Activity [12]: Active
Activity [13]: Active
Activity [14]: 50.95%
Activity [15]: 43.73%
Activity [16]: 5.32%
Activity [17]: 51.27%
Activity [18]: 46.53%
Activity [19]: 2.2%
Activity [20]: Active
Activity [21]: Active
Activity [22]: 53.37%
Activity [23]: 37.3%
Activity [24]: 9.33%
Activity [25]: 46%
Activity [26]: 45.58%
Activity [27]: 8.43%
Activity [28]: 36.99%
Activity [29]: 47.72%
Activity [30]: 15.29%
Activity [31]: Active
Activity [32]: Active
Activity [33]: Active
Activity [34]: Active
Activity [35]: Active
Activity [36]: Active
Activity [37]: Active
Activity [38]: Active
Activity [39]: Active
Activity [40]: Active
Activity [41]: Active
Activity [42]: Active
Activity [43]: Active
Activity [44]: Active
Activity [45]: Active
Activity [46]: Active
Activity [47]: Active
Activity [48]: Active
inhibition [49]: Active
inhibition [50]: Active
inhibition [51]: Active
inhibition [52]: Active
